Results as given in article PMC3743129 (ACS medicinal chemistry letters, 2013).
pEC50: −log10 of the molar value. Marks after values point to notes of the source that are not given here.

Assays:
[1] = system: a number of different viruses; conditions: cited from earlier work
[2] = type: in vitro ADME
[3] = in vitro; type: in vitro ADME
[4] = system: MeV-Edm; experiment: microbe, parasite or virus in culture; type: cell-based; conditions: Measles morbillivirus, read-out: EC50 against MeV strain Edmonston

## COc1ccc(-n2c(SC(C)C(=O)Nc3ccc(C)cc3Cl)nc3ccccc32)cc1 (stereo not drawn) [Compound 1]
[1]
  activity against a number of different viruses in cell culture: low nanomolar activity

## C#CCn1c([S+](=O)([O-])Cc2ccc(F)cc2)nc(-c2ccccc2)c1-c1ccccc1 [Compound 3]
[2]
  S9 stability T1/2 hamster: <2.5 min

## O=S(=O)(Cc1ccccc1)c1nc(-c2ccccc2)c(-c2ccccc2)[nH]1 [Compound 13a]
[2]
  S9 stability T1/2 hamster: <2.5 min

## Cn1c(S(=O)(=O)Cc2ccccc2)nc(-c2ccccc2)c1-c1ccccc1 [Compound 13b]
[3]; human, 20 min, 100 μM
  metabolite peak in LC-MS, % of total area: 91%
[3]; human, s9
  half-life: 2 to 12 min
[3]; s9
  S9 stability T1/2 human: 2-12^b min
[2]
  S9 stability T1/2 hamster: <2.5^b min

## Cn1c(S(=O)(=O)Cc2ccc(F)cc2)nc(-c2ccc(F)cc2)c1-c1ccc(F)cc1 [Compound 13c]
[2]
  S9 stability T1/2 hamster: <2.5^b min

## CN(Cc1nc(-c2ccccc2)c(-c2ccccc2)n1C)c1ccccc1 [Compound 28a]
[4]
  pEC50: 6.09
